Data as given in patent US9296778B2, “3′,5′-cyclic phosphate prodrugs for HCV infection” (Idenix Pharmaceuticals, Inc., priority 2012, dated 2016).

Key:
[1] = Stability in fresh human whole blood; assay type: in vitro ADME; settings: 0.5 μM, percent unchanged test compound
How it was run: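 Test compound at 0.5 μM was incubated at 37 °C in fresh human K2EDTA whole blood, stored at 2–8 °C and used within 7 days, in triplicate. Samples taken at 0, 0.5, 1 and 2 h were quenched in cold acetonitrile containing internal standard and analysed by LC-MS/MS. Percent unchanged compound was derived from peak-area ratios.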

[2] = Stability in simulated gastric fluid; assay type: in vitro ADME; settings: 100 μM, 2 hours at 37° C., percent of the peak area at time zero
How it was run: (§1)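 Compounds at 100 μM final, in duplicate, kept 2 h at 37° C in USP gastric fluid (pepsin) or intestinal fluid (pancreatin). Quenched with cold acetonitrile, supernatant analysed by C-18 HPLC, UV 252 nm. Remaining compound expressed as percent of time-zero peak area.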

Stability in mouse blood = assay type: in vitro ADME; settings: on ice, percent unchanged test compound
How it was run: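 Test compound at 0.5 μM final in whole blood, held on ice; sampled at 0, 0.5 and 1 hr in triplicate. Samples quenched with acetonitrile containing internal standard and analysed by LC-MS/MS; percent unchanged compound from peak area ratio to internal standard.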

[3] = Stability in simulated intestinal fluid; assay type: in vitro ADME; settings: 100 μM, 2 hours at 37° C., percent of the peak area at time zero
How it was run: as §1

HCV genotype 1b replicon = test: HCV Replicon Assay; assay type: cell-based; settings: Hepatitis C virus, 72 h, Zluc cells (Huh-7-derived, HCV genotype 1b replicon, luciferase reporter), 72 hours; read-out: HCV Replicon EC50
How it was run: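 Zluc Huh-7 cells with HCV genotype 1b replicon and luciferase reporter treated with 5-fold dilutions (100 μM to 0.0000512 μM final) in duplicate, or at 1 and 10 μM. Luminescence read with ONE-glo; EC50 from dose-response fits, or % inhibition at the fixed concentrations.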

[4] = Plasma pharmacokinetics following a single oral dose in CD-1 mice; assay type: in vivo; settings: single oral dose 25 mg/kg in PEG 200, CD-1 male mice; given at 1 μmol/kg
How it was run: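 Male CD-1 mice given a single oral 25 mg/kg dose in PEG 200, with terminal plasma and liver taken from three animals per time point at 4, 12 and 24 h. Plasma 2′-methylguanosine measured by LC-MS/MS in positive ion mode with a deuterated internal standard, calibrated over 0.500 (LLOQ) to 200 ng/mL.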

[5] = Stability in liver subcellular fractions (microsomes); assay type: in vitro ADME, human; settings: 10 μM, 1.0 mg/mL microsomal protein, NADPH, 60 min, percent unchanged test compound
Experimental: Stability of compounds were determined in subcellular fractions (microsomes) of human liver in duplicate for each matrix. Pooled liver microsomal proteins (1.0 mg/mL), suspended in incubation buffer (100 mM potassium phosphate, pH 7.4, 5 mM MgCl2, and 0.1 mM EDTA), were preincubated for 5 min at 37° C. with 10 μM of a test compound from a 10 mM stock solution in DMSO (final DMSO concentration was 0.1%); the reaction was initiated by the addition of NADPH (3 mM final concentration). At specific times (0 and 60 min), 0.1 mL samples were taken and the reaction terminated by the addition of 4 volumes of stop solution (acetonitrile with 500 ng/mL carbutamide as an internal standard). The samples were vortexed for 30 sec and then centrifuged at 16,000 g for 10 min. 100 μL of supernatants were transferred to 96 deep-well plates preloaded with 100 μL distilled water and analyzed after mixing by LC-MS/MS. The MS peak area ratio of the test compounds versus the internal standard was calculated and percent unchanged test compound over 60 minutes was calculated using this ratio.

in vitro = settings: human, HCV Replicon CC50, Zluc cells, CellTiter-Blue

SMILES: CCOc1nc(N)nc2c1ncn2[C@@H]1O[C@@H]2COP(=O)(OCCCC(=O)OC(C)C)O[C@H]2[C@@]1(C)F (single isomer, unassigned) [Compound 20 Diastereomer 1]
- Stability WB_Human (37° C.; 2 hr) [1]: 98%
- Stability SGF [2]: 98%
- Stability WB_Mouse (ice; 1 hr) (Stability in mouse blood): 1%
- Stability SIF [3]: 95%
- EC50 (HCV genotype 1b replicon): < 250 nM
- Ms Plasma 2′-MeG AUC [4]: 58 pmol · hr/mL at 1 μmol/kg
- Ms Plasma 2′-MeG Cmax [4]: 5.9 pmol/mL at 1 μmol/kg
- Stability HLM (1 hr) [5]: 0.35%
- CC50 (in vitro): > 50 µM
